Measured values from the CheMixHub viscosity set.
“And” between values parts separate entries of the source, which are not always exact repeats. Equal values may be shown once.

Test: xn = mol fraction of the nth substance listed

COCCOCCO + ClC(Cl)=C(Cl)Cl
298.15 K, 101.33 kPa
Conditions	viscosity [mPa·s]
x1 = 0.0072	0.852
x1 = 0.0147	0.859
x1 = 0.0261	0.869
x1 = 0.0417	0.884
x1 = 0.0604	0.911
x1 = 0.0868	0.948
x1 = 0.1038	0.975
x1 = 0.1347	1.023
x1 = 0.1769	1.092
x1 = 0.2025	1.139
x1 = 0.2433	1.216
x1 = 0.2755	1.279
x1 = 0.3041	1.34
x1 = 0.3353	1.413
x1 = 0.374	1.504
x1 = 0.4127	1.596
x1 = 0.4577	1.712
x1 = 0.4877	1.796
x1 = 0.5213	1.9
x1 = 0.5632	2.03
x1 = 0.5988	2.14
x1 = 0.6333	2.253
x1 = 0.6701	2.366
x1 = 0.7061	2.48
x1 = 0.7414	2.593
x1 = 0.7892	2.754
x1 = 0.8427	2.948
x1 = 0.8844	3.109
x1 = 0.9138	3.225
x1 = 0.9381	3.323
x1 = 0.9613	3.414
x1 = 0.978	3.478
x2 = 0.0115	3.521

CC(C)CCC[C@@H](C)[C@H]1CC[C@H]2[C@@H]3CC=C4C[C@@H](O)CC[C@]4(C)[C@H]3CC[C@]12C + ClC(Cl)Cl
viscosity [mPa·s], 101.33 kPa
Conditions	x1 = 0.00286	x1 = 0.0048	x1 = 0.0081	x1 = 0.0138	x1 = 0.01748	x1 = 0.0223	x1 = 0.02849	x1 = 0.03663
298 K	0.557	0.57	0.594	0.638	0.667	0.709	0.766	0.848
303 K	0.534	0.547	0.568	0.608	0.635	0.673	0.724	0.798
313 K	0.494	0.504	0.522	0.555	0.578	0.609	0.652	0.712
323 K	0.459	0.468	0.483	0.511	0.529	0.555	0.589	0.637

Cc1ccccc1C + ClC(Cl)Cl
298.15 K, 101 kPa
Conditions	viscosity [mPa·s]
x2 = 0.262	0.739
x2 = 0.3694	0.725
x2 = 0.5222	0.6941
x2 = 0.5776	0.682
x2 = 0.6279	0.6691
x2 = 0.6624	0.6592
x2 = 0.7082	0.6482
x2 = 0.7562	0.6348
x2 = 0.7944	0.6224

c1ccc(Oc2ccccc2)cc1 + ClC(Cl)Cl
298.15 K, 101 kPa
Conditions	viscosity [mPa·s]
x1 = 0.3136	2.22
x1 = 0.5696	1.39
x1 = 0.817	0.83

COCCOCCO + ClC=C(Cl)Cl
298.15 K, 101.33 kPa
Conditions	viscosity [mPa·s]
x1 = 0.0091	0.537
x1 = 0.0258	0.553
x1 = 0.0362	0.567
x1 = 0.0477	0.582
x1 = 0.0679	0.61
x1 = 0.0896	0.643
x1 = 0.1146	0.685
x1 = 0.1489	0.742
x1 = 0.187	0.817
x1 = 0.2425	0.926
x1 = 0.2811	1.009
x1 = 0.3123	1.082
x1 = 0.3733	1.237
x1 = 0.4192	1.356
x1 = 0.4582	1.467
x1 = 0.4988	1.587
x1 = 0.541	1.725
x1 = 0.5789	1.849
x1 = 0.608	1.948
x1 = 0.6351	2.044
x1 = 0.6756	2.194
x1 = 0.7372	2.433
x1 = 0.7781	2.596
x1 = 0.811	2.73
x1 = 0.8467	2.882
x1 = 0.8774	3.015
x1 = 0.9167	3.194
x1 = 0.9481	3.329
x1 = 0.9733	3.449
x2 = 0.0104	3.531

CC(C)CCC[C@@H](C)[C@H]1CC[C@H]2[C@@H]3CC=C4C[C@@H](O)CC[C@]4(C)[C@H]3CC[C@]12C + ClCCCl
viscosity [mPa·s], 101.33 kPa
Conditions	298 K	303 K	313 K	323 K
x1 = 0.00307	0.794	0.743	0.659	0.587
x1 = 0.00516	0.812	0.761	0.673	0.599
x1 = 0.00648	0.825	0.772	0.682	0.608
x1 = 0.00816	0.84	0.785	0.692	0.619

c1ccc(Oc2ccccc2)cc1 + NCc1ccccc1
303.15 K, 101 kPa
Conditions	viscosity [mPa·s]
x2 = 0.1488	2.696
x2 = 0.2823	2.409
x2 = 0.4028	2.179
x2 = 0.512	1.991
x2 = 0.6114	1.839
x2 = 0.7024	1.714
x2 = 0.786	1.613
x2 = 0.8629	1.531
x2 = 0.934	1.465

Cc1ccc(Cl)cc1 + Nc1cccc(Cl)c1
viscosity [mPa·s], 100 kPa
Conditions	x2 = 0.0757	x2 = 0.1649	x2 = 0.2579	x2 = 0.3519	x2 = 0.4697	x2 = 0.5707	x2 = 0.6749	x2 = 0.7826	x2 = 0.8935
303.15 K	1.052	1.369	1.698	2.029	2.441	2.791	3.15	3.518	3.895
308.15 K	0.968	1.253	1.549	1.847	2.217	2.531	2.853	3.184	3.521
313.15 K	0.899	1.152	1.414	1.677	2.003	2.28	2.564	2.854	3.15
318.15 K	0.823	1.045	1.273	1.502	1.786	2.027	2.274	2.526	2.782

CCCCCC(=O)[O-].[NH3+]CCO + O
viscosity [mPa·s], 101 kPa
Conditions	x1 = 0.0053	x1 = 0.0114	x1 = 0.0176	x2 = 0.9074	x2 = 0.9364	x2 = 0.9583	x2 = 0.9753
293.15 K	1.44	1.692	1.82	12.85	6.672	3.858	2.546
298.15 K	1.26	1.5	1.68	10.73	5.73	3.306	2.04
303.15 K	1.11	1.35	1.494	9.048	4.92	2.868	1.806

CCn1cc[n+](C)c1.F[B-](F)(F)F + O
Conditions	viscosity [mPa·s]
293.15 K, 101 kPa, x2 = 0.3047	19.25

OCCN(CCO)CCO + O
viscosity
Conditions	293.15 K	298.15 K	303.15 K	308.15 K	313.15 K	323.15 K
101 kPa, x1 = 0.029	2 mPa·s	–	–	–	–	0.988 mPa·s
101 kPa, x1 = 0.0434	–	2.499 mPa·s	2.194 mPa·s	–	1.661 mPa·s	–
101 kPa, x1 = 0.0649	–	3.802 mPa·s	3.446 mPa·s	–	2.406 mPa·s	–
101 kPa, x1 = 0.0966	–	6.839 mPa·s	5.658 mPa·s	–	4.005 mPa·s	–
101 kPa, x1 = 0.11	8.51 mPa·s	–	–	–	–	3.24 mPa·s
101 kPa, x1 = 0.1312	–	11.65 mPa·s	9.419 mPa·s	–	6.419 mPa·s	–
101 kPa, x1 = 0.1769	–	20.76 mPa·s	16.89 mPa·s	–	10.97 mPa·s	–
101 kPa, x1 = 0.27	64.6 mPa·s	–	–	–	–	14.8 mPa·s
101 kPa, x1 = 0.2724	–	54.52 mPa·s	41.37 mPa·s	–	25.21 mPa·s	–
101 kPa, x1 = 0.3481	–	96.45 mPa·s	73.09 mPa·s	–	41.11 mPa·s	–
101 kPa, x1 = 0.4784	–	187.3 mPa·s	131.4 mPa·s	–	70.8 mPa·s	–
101 kPa, x1 = 0.5814	–	278.1 mPa·s	187.2 mPa·s	–	97.64 mPa·s	–
101 kPa, x1 = 0.7166	–	390.4 mPa·s	269.9 mPa·s	–	138.2 mPa·s	–
101 kPa, x1 = 0.8347	–	472.7 mPa·s	328.9 mPa·s	–	166.2 mPa·s	–
101 kPa, x1 = 0.9177	–	542.7 mPa·s	369.7 mPa·s	–	184.6 mPa·s	–
101 kPa, x1 = 0.9724	–	585.3 mPa·s	396.2 mPa·s	–	196.3 mPa·s	–
101.3 kPa, x1 = 0.0064	1.141 mPa·s	0.998 mPa·s	0.872 mPa·s	0.765 mPa·s	0.664 mPa·s	0.555 mPa·s
101.3 kPa, x1 = 0.0134	1.33 mPa·s	1.161 mPa·s	1.039 mPa·s	0.914 mPa·s	0.801 mPa·s	0.688 mPa·s
101.3 kPa, x1 = 0.0294	–	1.789 mPa·s	1.559 mPa·s and 1.57 mPa·s	1.369 mPa·s	–	0.988 mPa·s

OCCOCCOCCOCCOCCO + O
viscosity [mPa·s], 100 kPa
Conditions	293.15 K	298.15 K	303.15 K	308.15 K	313.15 K	318.15 K	323.15 K
x2 = 0.023	70.88	54.12	42.28	33.63	27.22	22.34	18.57
x2 = 0.081	72.83	55.72	43.21	34.21	27.55	22.56	18.68
x2 = 0.144	71.38	54.33	42.28	33.53	27.01	22.11	18.34
x2 = 0.166	70.74	53.66	41.76	33.1	26.67	21.83	18.08
